One data set relates to Pyrenophora teres. The data set can be described thus: Activity against net blotch of barley caused by Pyrenophora teres, 1 day protective application (comparative test). In kind it is in vivo. To be noted: potted barley seedlings, sprayed 24 h before inoculation; visual % infection of entire leaf area after 6 days; concentration not given; untreated 90%. How it is done:
The active compounds were prepared as a stock solution comprising 25 mg of active compound which was made up to 10 ml using a mixture of acetone and/or DMSO and the emulsifier Uniperol® EL (wetting agent having emulsifying and dispersing action based on ethoxylated alkylphenols) in a volume ratio of solvent/emulsifier of 99/1. The mixture was then made up to 100 ml with water. This stock solution was diluted with the solvent/emulsifier/water mixture described to the concentration of active compound stated below.
Comparative test—Activity against net blotch of barley caused by Pyrenophora teres, 1 day protective application
Leaves of potted barley seedlings were sprayed to runoff point with an aqueous suspension having the concentration of active compound stated below. 24 hours after the spray coating had dried on, the test plants were inoculated with an aqueous spore suspension of Pyrenophora [syn. Drechslera] teres, the net blotch pathogen. The test plants were then placed in a greenhouse at temperatures between 20 and 24° C. and 95 to 100% relative atmospheric humidity. After 6 days, the extent of the development of the disease was determined visually in % infection of the entire leaf area.

In the case of `C=CCCCCc1c(C)nc2cc(C)nn2c1N` [I-1], the melting point (as a rule, the temperature, or range, at which the solid turns liquid) lay in the range of 178 to 179 °C. The molecule further registered an Infection in % in the data set on Pyrenophora teres of 40%.

The molecule `CCCCCCc1c(C)nc2cc(C)nn2c1N` [compound 30, reference compound] yielded an Infection in % in the data set with Pyrenophora teres of 90%.

The values above are taken from patent US20080188493A1 (priority 2005, published 2008).
